Where two headings read alike, the source gives them in different places.
System: P. aeruginosa DSMZ 1117
Type: cell-based, Pseudomonas aeruginosa
Settings: for Reduction in adhered bacteria [%]: P. aeruginosa, polyester; for Reduction in adhered bacteria [%] P. aeruginosa: polyester fabric, application concentration 0.1 wt %, commercial product applied directly by padding, relative to uncoated fabric
Experimental: Circular fabric samples with a diameter of 0.6 cm were punched from coated and uncoated cotton and polyester fabrics. The fabric samples were fixed to a microtiter plate. The fabric samples were washed with acetone and sterilized with UV light for 60 minutes.
The strains were coated fresh from glycerol bacterial cultures onto tryptic soy agar (TSA). Incubation took place overnight at 33° C. The nutrient medium prepared was a tryptic soy broth (TSB), with 30% of the amount recommended by the manufacturer, supplemented with 0.25% of glucose. […] The nutrient medium was inoculated with the bacterial cultures and after inoculation was cultivated overnight at 37° C. and 160 rpm.
The resulting overnight cultures were centrifuged at 8500 g for 15 minutes and washed with 50 ml of isotonic saline solution (0.9 wt %). Bacterial suspensions in isotonic saline solutions were prepared. The optical density of the various bacterial suspensions was determined at 595 nm and adjusted to a level of about 1.2.
50 μl of the final microorganism suspension in isotonic saline solution (0.9 wt %) prepared as described under 2.2 were added to the coated and uncoated fabric samples fixed on the microtiter plate (see 2.1). The microtiter plates were closed and sealed off with Parafilm. The microtiter plates were placed in an antievaporation box and incubated at 33° C. for 2 h and at 40 rpm. The expected colony-forming unit count (CFU) of the inoculum at the start was 10^6-10^7 CFU/ml.
After the biofilm had formed, the planctonic cells were removed and used as a sample for determining the optical density at 595 nm. For this purpose, the samples were made up to a volume of 150 μl, and 100 μl were withdrawn for the optical density determination in a photometer. […] Through the determination of the planctonic cells after the formation of biofilm, the amount of bacteria available for adhesion was monitored.
The fabric samples and the resulting biofilm were washed three times with 200 to 300 μl of isotonic saline solution.
The fabric samples obtained under 2.4 (after formation of biofilm) were placed together with 100 μl of isotonic saline solution into wells of a 96-well microtiter plate.
Investigations into the removal of the adhered microorganisms from the fabric surfaces were carried out with vortexing, ultrasound, with enzymatic treatment, or with combinations thereof. Treatment in the vortex amounted to 5 minutes and was performed horizontally. The ultrasound treatment was carried out in an ultrasound bath for 5 minutes. For the enzymatic removal, the fabric samples were treated with enzymes, such as trypsin or a mixture of different enzymes, for example, during incubation at 37° C. for 1 hour.
Following removal of the adhered bacteria, the fabric samples were removed from the microtiter plates.
The number of removed bacteria in the resulting suspension was determined by staining with Syto9 and fluorescence measurement (fluorescence filter with excitation at 485/20 nm and emission at 528/20 nm) or by staining with BacTiterGlo and bioluminescence measurement. Furthermore, it is possible to determine the number of adhered and removed microorganisms by means of protein assay (e.g., BCA assay, Bradford Assay) or optical density proliferation assay.
The relative variables (e.g., fluorescence units (RFU)) concerning the coated and uncoated fabrics were compared, allowing the reduction in adhered bacteria in % to be determined in accordance with the following formula: Reduction in adhered bacteria[%]=[(RFUuc−RFUuc)/RFUuc]*100 where • RFUuc=relative fluorescence units of the removed bacteria of the uncoated substrate • RFUc=relative fluorescence units of the removed bacteria of the coated substrate
The commercial products described in example 1 were applied directly by a padding method to polyester fabric samples.
Bacterial adhesion to the polyester fabric samples was investigated using the microtiter plate Syto9 assay, as described in example 2.

[1] = coating concentration 0.001 %, wash pretreatment (A) unwashed
[2] = coating concentration 0.001 %, wash pretreatment (B) washed twice at 30° C. only with water
[3] = coating concentration 0.001 %, wash pretreatment (C) washed once at 30° C. EN ISO 6330 method 8A with ECE B detergent
[4] = coating concentration 0.01 %, wash pretreatment (A) unwashed
[5] = coating concentration 0.01 %, wash pretreatment (B) washed twice at 30° C. only with water
[6] = coating concentration 0.01 %, wash pretreatment (C) washed once at 30° C. EN ISO 6330 method 8A with ECE B detergent
[7] = coating concentration 0.1 %, wash pretreatment (A) unwashed
[8] = coating concentration 0.1 %, wash pretreatment (B) washed twice at 30° C. only with water
[9] = coating concentration 0.1 %, wash pretreatment (C) washed once at 30° C. EN ISO 6330 method 8A with ECE B detergent

Compound | Reduction in adhered bacteria [%] [1] [%] | Reduction in adhered bacteria [%] [2] [%] | Reduction in adhered bacteria [%] [3] [%] | Reduction in adhered bacteria [%] [4] [%] | Reduction in adhered bacteria [%] [5] [%] | Reduction in adhered bacteria [%] [6] [%] | Reduction in adhered bacteria [%] [7] [%] | Reduction in adhered bacteria [%] [8] [%] | Reduction in adhered bacteria [%] [9] [%] | Reduction in adhered bacteria [%] P. aeruginosa [%]
CO[Si](CCCN(CCN(CC(=O)[O-])CC(=O)[O-])CC(=O)[O-])(OC)OC.[Na+].[Na+].[Na+] [S5, N-(trimethoxysilylpropyl)ethylenediaminetriacetyl acid, trisodium salt] | 81 | 42 | 77 | 78 | 54 | 73 | 68 | 69 | 67 | 17
N-(triethoxysilylpropyl)-O-polyethylene oxide-urethane, (4-6 EO units) [S3] | 63 | 46 | 69 | 65 | 37 | 71 | 85 | 36 | 76 | 48

Source: patent US10132029B2, “Method for reducing adhesion of microorganisms to fabrics” (priority 2013, dated 2018)
